We go through three compounds from US7838553B2, “Benzopyran derivatives as potassium channel openers” (Janssen Pharmaceutica NV, priority 2005, dated 2010).

SMILES strings stand for the structures.

For the assay, the target named is T1, KATP channels (Homo sapiens, UniProt O60706+Q14654).
T1 construct: TE671 human medulloblastoma cells were obtained from ATCC; host or cells: TE671 human medulloblastoma cells
T1 sequence (O60706 1-1549 isoform O60706-2): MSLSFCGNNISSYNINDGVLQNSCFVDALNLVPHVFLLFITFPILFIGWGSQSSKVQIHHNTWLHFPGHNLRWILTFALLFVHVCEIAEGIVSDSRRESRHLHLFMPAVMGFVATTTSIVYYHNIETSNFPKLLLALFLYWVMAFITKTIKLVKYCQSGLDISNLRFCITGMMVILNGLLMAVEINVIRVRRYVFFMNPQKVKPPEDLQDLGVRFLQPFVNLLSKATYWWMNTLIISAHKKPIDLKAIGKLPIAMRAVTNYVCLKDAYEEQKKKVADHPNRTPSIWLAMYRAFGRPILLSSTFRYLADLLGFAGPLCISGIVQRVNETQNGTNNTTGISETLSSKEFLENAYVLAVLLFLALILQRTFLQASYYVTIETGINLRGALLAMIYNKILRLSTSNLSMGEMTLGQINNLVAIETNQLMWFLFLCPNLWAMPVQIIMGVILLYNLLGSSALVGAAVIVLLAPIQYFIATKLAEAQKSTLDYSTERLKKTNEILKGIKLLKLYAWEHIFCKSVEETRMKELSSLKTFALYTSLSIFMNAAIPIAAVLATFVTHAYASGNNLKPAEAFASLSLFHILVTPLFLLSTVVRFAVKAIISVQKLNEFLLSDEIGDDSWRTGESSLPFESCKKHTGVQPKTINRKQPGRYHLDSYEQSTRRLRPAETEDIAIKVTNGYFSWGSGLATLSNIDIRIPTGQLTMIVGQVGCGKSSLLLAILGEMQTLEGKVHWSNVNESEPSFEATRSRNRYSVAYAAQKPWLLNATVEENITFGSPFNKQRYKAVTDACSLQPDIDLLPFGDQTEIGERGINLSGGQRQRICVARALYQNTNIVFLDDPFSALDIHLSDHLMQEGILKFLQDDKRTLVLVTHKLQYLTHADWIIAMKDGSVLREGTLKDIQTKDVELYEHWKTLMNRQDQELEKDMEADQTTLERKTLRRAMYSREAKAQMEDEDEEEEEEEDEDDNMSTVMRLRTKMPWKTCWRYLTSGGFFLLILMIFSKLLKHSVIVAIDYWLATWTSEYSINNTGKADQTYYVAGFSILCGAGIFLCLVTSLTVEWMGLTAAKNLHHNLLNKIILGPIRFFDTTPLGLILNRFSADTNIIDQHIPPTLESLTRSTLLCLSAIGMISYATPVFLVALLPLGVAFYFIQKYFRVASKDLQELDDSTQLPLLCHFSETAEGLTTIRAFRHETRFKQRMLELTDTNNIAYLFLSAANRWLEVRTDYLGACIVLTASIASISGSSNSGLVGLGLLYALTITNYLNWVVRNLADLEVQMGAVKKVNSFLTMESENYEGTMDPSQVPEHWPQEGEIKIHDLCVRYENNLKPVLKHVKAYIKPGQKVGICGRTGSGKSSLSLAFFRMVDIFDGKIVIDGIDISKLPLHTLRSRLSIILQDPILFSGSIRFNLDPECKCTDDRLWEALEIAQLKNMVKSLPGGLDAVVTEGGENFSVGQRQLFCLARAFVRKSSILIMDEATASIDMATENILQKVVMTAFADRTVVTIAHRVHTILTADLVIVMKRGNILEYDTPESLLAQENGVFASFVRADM
T1 sequence (Q14654 whole entry): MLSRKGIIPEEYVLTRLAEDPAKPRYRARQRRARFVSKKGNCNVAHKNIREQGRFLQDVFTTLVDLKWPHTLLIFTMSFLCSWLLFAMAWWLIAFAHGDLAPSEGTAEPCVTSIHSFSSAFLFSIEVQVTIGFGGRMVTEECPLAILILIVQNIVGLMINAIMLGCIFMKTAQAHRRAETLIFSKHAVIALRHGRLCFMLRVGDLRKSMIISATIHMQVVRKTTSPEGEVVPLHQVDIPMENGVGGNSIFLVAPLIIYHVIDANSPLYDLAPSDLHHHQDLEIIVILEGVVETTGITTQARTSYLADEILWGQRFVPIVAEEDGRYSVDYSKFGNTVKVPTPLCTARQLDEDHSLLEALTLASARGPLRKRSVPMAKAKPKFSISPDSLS
Description: Potassium Channel Assay (FLIPR membrane potential). The class given is cell-based. The following applies: TE671 human medulloblastoma cells, Membrane Potential Assay Dye, room temperature, hyperpolarization from KATP channel opening. Here is the method:
TE671 human medulloblastoma cells were obtained from ATCC and grown in Dulbecco's modified Eagle's medium (DMEM) supplemented with 10% fetal bovine serum, 100 U/ml penicillin and […].
The day before testing, the cells were plated in black 96-well plates at 50 K/well. On the day of testing, the growth media was removed, then 100 μl of FLIPR buffer (20 mM HEPES, 120 mM NaCl, 2 mM KCl, 2 mM CaCl2, 1 mM MgCl2, 5 mM Glucose) and 100 μl of Membrane Potential Assay Dye (Molecular Devices) dissolved in FLIPR buffer were added to each well. The cells were incubated at room temperature for 15 to 30 min.
The effect of test compounds on KATP channels were evaluated on a fluorometric imaging plate reader (FLIPR, Molecular Devices) at room temperature. After a baseline period, 50 μl of 5× stock solution of test compound prepared in FLIPR buffer was added and fluorescent change was monitored for 3 minutes. After this reading, glyburide, a KATP channel blocker, was added to a final concentration of 5 μM to check the specificity of the test compound as a KATP channel openers. Hyperpolarization resulting from KATP channel opening was observed as a decrease in fluorescent intensity.
Representative compounds of the present invention were tested according to the procedure described above, with results as listed in Table 7, below.
In the case of `CC1(C)Oc2ccncc2[C@@H](n2c(=O)ccn2-c2ccc(Cl)cc2)[C@@H]1O` (racemic) [Compound 110, 1-(4-Chloro-phenyl)-2-(3-hydroxy-2,2-dimethyl-3,4-dihydro-2H-pyrano[32-c]pyridin-4-yl)-1,2-dihydro-pyrazol-3-one], the EC50 (usually the midpoint of the concentration-response curve) is over 30 µM.
`CC1(C)Oc2ccc(S(=O)(=O)c3ccccc3)cc2[C@@H](Oc2noc3ccc(Cl)cc23)[C@@H]1O` [Compound 75, (3S,4R)-6-Benzenesulfonyl-4R-(5-chloro-benzo[d]isoxazol-3-yloxy)-2,2-dimethyl-chroman-3S-ol] displayed an EC50 of over 30 µM.
The same measure for `CC1(C)Oc2ccc(C#N)cc2[C@@H](Sc2ncc[nH]2)[C@@H]1O` [Compound 25, (3S,4R)-3-Hydroxy-4-(2H-imidazol-2-ylsulfanyl)-2,2-dimethyl-chroman-6-carbonitrile]: 0.84 µM.
